The source of these data is patent US6794509B1, “Compounds for fluorescence labeling” (Fuji Photo Film Co., Ltd., priority 1999, dated 2004).

The structures appear in SMILES notation.

Data set [1] can be described thus: Comparison of relative fluorescence quantum yield (absorption and fluorescence spectra of dye solutions). Format: physicochemical. The following applies: for Absorption maximum (nm) / Fluorescence maximum (nm): ethanol solution of dye; for Fluorescence maximum (nm) / Relative fluorescence quantum yield: absorbance 0.1 at 620 nm; for Fluorescence maximum (nm): spectrum measured at 620 nm; for Relative fluorescence quantum yield: ethanol solution, area of fluorescence spectrum relative to Crystal Violet (Φf=0.54). On the procedure:
Measurement and calculation of relative quantum yield were performed according to the method described in Journal of Chemical Society, Faraday Trans., 92, 4917-4925 (1996). The structures of the conventional cyanine dye used as comparative dyes are shown below.
(2) Fluorescence spectrum was measured at an […] wavelength of 620 nm.
(3) Area value of fluorescence spectrum was calculated.
(4) Relative value was calculated based on the area value of Crystal Violet of which absolute fluorescence quantum yield was known (Φf=0.54).

For data set [2] the following is noted: known value of the standard; cited from earlier work.

With `CC(CC[n+]1cc(C#Cc2ccc(N(CCCS(=O)(=O)[O-])S(C)(=O)=O)cc2)cc2c1N=C(/C=C/C=C1\N=C3C(=CC(C#Cc4ccc(N(CCCS(=O)(=O)[O-])S(C)(=O)=O)cc4)=CN3CCCCCC(=O)O)C1(C)C)C2(C)C)S(=O)(=O)[O-].[K+].[K+]` (stereo not shown) [Compound I-11], in data set [1], the “Absorption maximum (nm)” value is 651 nm, the “Fluorescence maximum (nm)” value worked out at 672 nm and the “Relative fluorescence quantum yield” value was determined as 0.63.

As to `CC1(C)C2=CC(C#Cc3cccc(N(CCCS(=O)(=O)[O-])S(C)(=O)=O)c3)=CN(CCCCCC(=O)O)C2=N/C1=C\C=C\C1=Nc2c(cc(C#Cc3cccc(N(CCCS(=O)(=O)[O-])S(C)(=O)=O)c3)c[n+]2CCCS(=O)(=O)[O-])C1(C)C.[K+].[K+]` [Compound I-12], in data set [1], the “Absorption maximum (nm)” value is on record as 650 nm, the “Fluorescence maximum (nm)” value was determined as 671 nm and the “Relative fluorescence quantum yield” value was found to be 0.62.

For the molecule `CC(CCN1C=C(C#Cc2ccc(N(CCCS(=O)(=O)[O-])S(C)(=O)=O)cc2)C=C2C1=N/C(=C\C=C\C1=Nc3c(cc(C#Cc4ccc(N(CCCCCC(=O)O)S(C)(=O)=O)cc4)c[n+]3CCC(C)S(=O)(=O)[O-])C1(C)C)C2(C)C)S(=O)(=O)[O-].[K+].[K+]` (stereo not shown) [Compound I-13], in data set [1], the “Absorption maximum (nm)” value was 651 nm, the “Fluorescence maximum (nm)” value is recorded as 672 nm and the “Relative fluorescence quantum yield” value is 0.63.

For `CN(C)c1ccc(C(=C2C=CC(=[N+](C)C)C=C2)c2ccc(N(C)C)cc2)cc1` [Crystal Violet], the “absolute fluorescence quantum yield (Φf)” value in data set [2] was 0.54.

For `CC[N+]1=C(/C=C/C=C/C=C2/N(CCCCCC(=O)O)c3ccc(S(=O)(=O)[O-])cc3C2(C)C)C(C)(C)c2cc(S(=O)(=O)[O-])ccc21.[K+]` [compound 2, reference compound], in data set [1], the “Absorption maximum (nm)” value is 645 nm, the “Fluorescence maximum (nm)” value worked out at 664 nm and the “Relative fluorescence quantum yield” value is recorded as 0.27.
